Assay results as given in patent US20150044244A1, “COMBINED FACILITATOR, ANTIGEN AND DNA VACCINE FOR PREVENTING AND TREATING AUTOIMMUNE DISEASES” (BEIJING ADVANCCINE BIOTECHNOLOGY CO. LTD., priority 2011, published 2015).

Legend:
[1] = tested on: JAWS II cells; test: Endocytosis inhibitors and CD40low phenotype in JAWS II cells; assay type: cell-based, mouse; settings: for effect on CD40low phenotype: pretreatment before pOVA323+OVA323
Protocol: The JAWS II mouse DC line was purchased from the American Type Culture Collection (ATCC, Manassas, Va., USA) and maintained in complete growth medium containing minimum essential medium (MEM) alpha with ribonucleosides, deoxyribonucleosides, 4 mM L-glutamine, and 1 mM sodium pyruvate (Invitrogen Inc., Carlsbad, Calif., USA), and supplemented with 20% fetal bovine serum (ATCC) and 5 ng/ml murine recombinant GM-CSF (R&D Systems, Inc., Minneapolis, Minn., USA). The cells were incubated at 37° C. with 5% CO2 and treated with different antigens (10 μg/ml) such as pVAX, pOVA, OVA, pOVA323 and OVA323 for 24 h. For inhibitor treatment, JAWS II cells were pre-treated with filipin (10 μg/ml), MDC (50 μM) for 30 min at 37° C., respectively, or with amiloride (5 mM) for 10 min at 37° C., and washed with medium, then stimulated with antigens.
DCs take up exogenous antigens via various mechanisms including clathrin-mediated endocytosis, caveolae-mediated endocytosis, and macropinocytosis. To define which pathway(s) were involved in the co-uptake of DNA and protein immunogens, JAWS II cells were pretreated with MDC, a specific inhibitor of clathrin formation, or filipin, an inhibitor of caveolae trafficking, before being treated with pOVA323+OVA323. […] Another inhibitor, amiloride, an inhibitor for macropinocytosis, had no effect on CD40 expression (FIG. 37).

[2] = tested on: Cy5+ cells in draining lymph nodes; test: Cy5-pEGFP plasmid entry into draining lymph node cells after footpad injection; assay type: in vivo, C57B/6 mice; settings: 4 hrs after footpad injection
Protocol: To explore if amiloride would overcome low transfection efficiency in vivo, Cy5-labeled pEFGP plasmid with or without amiloride was injected into hind footpads of C57B/6 mice. After 4 hrs, draining lymph nodes were collected and Cy5+ cells were analyzed by FACS analysis. The inguinal lymph nodes from the un-injected side were also collected as negative controls. […] The other ˜10% was B220+, a B cell marker. […].

[3] = tested on: CD8 T cells co-cultured with peritoneal macrophages or spleen dendritic cells; test: APC and CD8 T cell co-culture, S208-215 restimulation; assay type: cell-based, mice; settings: macrophages and DCs co-culture system
Protocol: With respect to co-cultures, pcD-S2 (10 μg/ml) with or without 100 μM amiloride treat APCs, peritoneal macrophage or spleen dendrtic cell, were cultured for 2 days. At day3, purified CD8 T cell (R&D systems, USA) was added into culture with APC:T ratio of 1:5, 1:2, 1:1. At day 8, cells were collected and restimulated with S208-215 (10 μg/ml). PMA+Ionomycin was added as positive control for restimulation.
During the co-culture, HBsAg-derived peptide S208-215 (ILSPFLPL; H-2 Kb-restricted) was used to re-stimulate. Proportions of responsive T cells were analyzed.

[4] = tested on: HBsAg; settings: vs pcD-S2 alone; dose dependent manner
[5] = tested on: RAW264.7, DC2.4 and JAWSII; test: Maturation markers and innate cytokines after pcD-S2 with or without amiloride, cell lines; assay type: cell-based, mouse
Protocol: With respect to cell culture and inhibitor treatment, RAW264.7 and DC2.4 were cultured in DMEM/10% FCS, and JAWSII was cultured in DMEM/10% FCS with GMCSF (1000 U/ml, Peprotech, USA). Amiloride (Sigma-Aldrich, USA) was prepared as 10 mM solution and was diluted to 1 mM, 100 uM, 10 uM in DMEM medium before treatment. After culture medium was removed, cells were treated with amiloride, MβCD (5 mM, Sigma) or Fillipin (10 μg/ml, sigma) at 37° C. for 1 h. LPS (10 μg/ml, sigma) or 10 μg/ml DNA in DMEM was added at 37° C. for 0.5 h, after wash, culture medium was added and cells were cultured. Peritoneal macrophage was prepared from peritoneal cavity with 10 ml PBS wash, routinely with ˜50-70% F4/80 purity. Spleen dendritic cell was prepared from plate-adhesive cells and purified with Miltenyi DC purification kit (Miltenyi Biotec, Gladbach, Germany). Cells were treated and cultured 3 days for innate response.
Hepatitis B virus DNA vaccine (pcD-S2) encoding for HBsAg, which was conjugated with Cy5, was used to test whether amiloride-facilitated DNA entry into antigen presenting cells could positively affect innate immune responses.

[6] = tested on: RAW264.7, JAWSII and DC2.4; test: Cy5-pEGFP plasmid entry and GFP expression in APC cell lines with amiloride; assay type: cell-based, mouse; settings: vs un-treated cells
[7] = tested on: splenic CD4+ T cells; test: In vitro restimulation of T cells from FSA1 sensitized mice; assay type: cell-based, C57BL/6 mice; settings: than P66
Protocol: Splenic CD4^+ T cells from flea antigen immunized C57BL/6 mice were restimulated with P100 or P66 (5 ug/ml) in culture. T cell proliferation was determined by a 3-(4,5-Dimethylthiazol-2-yl)-2,5-diphenyltetrazolium bromide (MTT, a yellow tetrazole)-based assay. Concanavalin A (1 ug/ml) and BSA (1 ug/ml) were used as positive and negative controls, respectively. *, p<0.05. Shown is one of three independent experiments with similar results.
Flea allergic dermatitis is an allergic reaction to flea allergen that is mediated by CD4^+ T effector cells. To the above findings to a disease model, two antigenic epitopes from the flea allergen FSA1 were chosen, namely P66 (amino acids 66-80) (SEQ ID NO:189) and P100 (amino acids 100-114) (SEQ ID NO:188). […] This prediction was confirmed by sensitizing C57BL/6 mice (I-Ab^+) with full-length FSA1 followed by an in vitro restimulation assay using one of the epitopes.
With respect to T cell proliferation, MTT-based and CF SE-based T cell proliferation assays were performed as described before.

[8] = tested on: flea allergic dermatitis; test: Prophylactic co-immunization in flea allergic dermatitis model; assay type: in vivo, C57BL/6 mice; settings: than P66
Excerpt: To see whether the difference in antigenicity influences the induction of CD25^− iTreg cells by these two epitopes, C57BL/6 mice were prophylactically treated with co-immunization using the combination of DNA and protein vaccines targeting each epitope (designated as Co100 or Co66). Seven days after co-immunization, the animals were sensitized with flea saliva extracts, followed by a delayed-type hypersensitivity assay to determine to which extent the prophylactic co-immunization prevents the development of an allergic reaction.
With respect to tolerogenic immunization, Balb/c mice were injected intramuscular (i.m.) on days 0 and 14 with 100 ug each of OVA323-339 and pVAX1-OVA, MT1 and pVAX1-MT1, or MT2 and pVAX1-MT2. C57BL/6 mice were similarly injected with P100 and D100, or P66 and D66.
With respect to the intradermal test and histology, antigen-sensitized C57BL/6 mice were challenged intradermally (i.d.) with 10 ug of FSA (Greer Laboratories) on the nonlesional lateral thorax skin. PBS is used as a sham control and histamine is used as a positive control. The diameter of the skin reaction was measured within 30 min after challenge using a calibrated micrometer. Skin samples were collected within 30 min of antigen challenge, fixed in 4% paraformaldehyde, embedded in paraffin, and sectioned. […]

[9] = target: T1, MHC-II (I-Ad) (Mus musculus, UniProt P01921+P04228); test: Tetramer staining-based epitope competition assay; assay type: binding
T1 construct: purchased NIH Tetramer Core Facility
T1 sequence (P04228 24-218 limits assumed): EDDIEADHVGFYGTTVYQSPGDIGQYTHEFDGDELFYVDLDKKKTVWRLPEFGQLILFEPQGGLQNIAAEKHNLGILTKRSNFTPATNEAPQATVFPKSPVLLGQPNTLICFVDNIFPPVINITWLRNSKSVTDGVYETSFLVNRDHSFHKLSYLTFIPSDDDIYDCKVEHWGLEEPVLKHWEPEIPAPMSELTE
T1 sequence (P01921 28-226 limits assumed): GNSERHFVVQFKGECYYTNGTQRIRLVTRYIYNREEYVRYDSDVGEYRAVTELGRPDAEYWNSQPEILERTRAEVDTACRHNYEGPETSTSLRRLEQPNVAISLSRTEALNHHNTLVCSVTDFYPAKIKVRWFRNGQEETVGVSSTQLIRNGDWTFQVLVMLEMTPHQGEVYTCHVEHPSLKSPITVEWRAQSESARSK
Protocol: To further determine how antigenicity affects CD25^− iTreg induction, a set of mutated epitopes were generated from OVA323-339 (SEQ ID NO:187). Using a tetramer staining-based epitope competition assay, the affinity of each of the mutated epitopes for MHC-II was assessed. […] OVA323-339, MT1, and MT2 as probes for antigenicity studies were therefore selected.
With respect to the tetramer competition assay, PE-conjugated OVA323-339-loaded I-Ad tetramer (NIH Tetramer Core Facility) was competed with OVA323-339 or a mutant peptide by incubation of 2×10^5 DO11.10 T cells, the OVA323-339 tetramer, and a competing peptide together for 5 minutes. Five volumes of medium with 10% FCS were added to stop the competition. Cells were washed 3 times and immediately analyzed for PE-positive T cells by flow cytometer.

[10] = tested on: CD4+CD25− naive T cells; test: Foxp3-GFP induction in naive T cells with anti-CD3/anti-CD28 and cytokines; assay type: cell-based, Foxp3gfp mouse

CN(C)c1cccc2c(S(=O)(=O)NCCCCCN)cccc12 [MDC, monodansylcadaverine] was tested, and the “effect on CD40low phenotype” value [1] was “could prevent”.

In the case of N=C(N)NC(=O)c1nc(Cl)c(N)nc1N [amiloride], the “percentage of Cy5-plasmid+ cells in lymph nodes (LN)” value (“percentage … (LN)” for short) ([2]; amiloride 10 μM) is reported as “increased”, the “percentage … (LN)” value ([2]; amiloride 100 μM) is reported as “peaked” and the “percentage … (LN)” value ([2]; amiloride 1 mM) is reported as “decreased”. The “percentage of S208-215 specific triple positive CD8 T effectors” value [3] was “significantly increased”, the “levels of antibody against HBsAg” value [4] was “increased” and the “effect on CD40 expression” value ([1]; amiloride (5 mM) for 10 min) was “no effect”. For the same molecule, the “expression of CD40, CD80 and CD86” value ([5]; pcD-S2 plasmid with amiloride treatment) was “higher levels of expression of CD40, CD80 and CD86”, the “expression of TNF and IFN-γ” value ([5]; vs same cells without amiloride treatment) was “higher levels of expression of TNF and IFN-γ” and the GFP expression ([6]; 1 mM amiloride 1 h, after 3 days culture) was “significantly higher level of GFP”. The “uptake of Cy5-labeled pEGFP plasmids” value ([6]; pre-treated with 1 mM amiloride for 1 h, within 2 hrs) was “significantly taken up”.

For CCCCC[C@@H](O)[C@H]1C(=O)O[C@H](C)[C@@H](O)/C=C/C=C/C=C/C=C/C=C(\C)[C@@H](O)C[C@H](O)C[C@H](O)C[C@H](O)C[C@H](O)C[C@H](O)C[C@@H]1O [filipin], the “relative effectiveness in preventing CD40low phenotype” value [1] was “more effective than MDC” and the “effect on CD40low phenotype” value [1] was “could prevent”.

GPDWKVSKECKDPNN (Pulex irritans) [P100] was tested, and the T cell proliferation [7] was “significantly more vigorous T cell proliferation” and the “CD25− iTreg induced” value [8] was “induced more”.

For “ISQAVHAAHAEINEAGR (listed as Gallus gallus) [OVA323-339]”, the “order of affinity for MHC-II” value [9] was “OVA323-339>MT1>MT2=MT3”.

TGF-β1: titrated rhTGF-β1 (PeproTech) was tested, and the “GFP (Foxp3) expression in CD25− T cells” value [10] was “up-regulated”.

B1: IL-10: rmIL10 (PeproTech) (protein, UniProt P18893 19-178, looked up)
Interleukin-10: SRGQYSREDNNCTHFPVGQSHMLLELRTAFSQVKTFFQTKDQLDNILLTDSLMQDFKGYLGCQALSEMIQFYLVEVMPQAEKHGPEIKEHLNSLGEKLKTLRMRLRRCHRFLPCENKSKAVEQVKSDFNKLQDQGVYKAMNEFDIFINCIEAYMMIKMKS
B1 was tested, and the “GFP (Foxp3) expression in CD25− T cells” value [10] was “neither alone influenced the expression of Foxp3”.
